Test results: ChEMBL document CHEMBL1159271, “A reinvestigation of Maprounea triterpenes” (J Nat Prod, 1995)
The source made the active and inactive calls. The rule behind the calls is not given here.

Legend:
[1] = target: T1, Human immunodeficiency virus type 1 reverse transcriptase (Human immunodeficiency virus 1, UniProt Q72547); assay: Inhibition of HIV1 recombinant reverse transcriptase by NCI assay
[2] = target: T1, Human immunodeficiency virus type 1 reverse transcriptase; assay: Inhibition of HIV1 recombinant reverse transcriptase by UIC assay
Rattus norvegicus = organism: Rattus norvegicus; assay: Displacement of [3H]phorbol dibutyrate from rat brain membrane; format: tissue-based

IC50 [1] [µM]	IC50 [2] [µM]	Activity (Rattus norvegicus)	Structure (SMILES)
60	11.5	–	CC1(C)CC[C@]2(C(=O)O)CC=C3[C@]4(C)CC[C@H]5C(C)(C)[C@@H](OC(=O)/C=C/c6ccc(O)cc6)CC[C@]5(C)[C@H]4CC[C@@]3(C)[C@H]2C1
60	7.9	–	CC1(C)CC[C@]2(C(=O)O)CC=C3[C@]4(C)CC[C@H]5C(C)(C)[C@@H](OC(=O)c6ccc(O)cc6)[C@H](OC(=O)c6ccc(O)cc6)C[C@]5(C)[C@H]4CC[C@@]3(C)[C@H]2C1
> 100	3.7	Active	CC1(C)CC[C@]2(C(=O)O)CC=C3[C@]4(C)CC[C@H]5C(C)(C)[C@@H](OC(=O)c6ccc(O)cc6)C[C@@H](O)[C@]5(C)[C@H]4CC[C@@]3(C)[C@H]2C1
–	4.9	–	CC1(C)CC[C@]2(C(=O)O)CC=C3[C@]4(C)CC[C@H]5C(C)(C)[C@@H](O)C[C@@H](O)[C@]5(C)[C@H]4CC[C@@]3(C)[C@H]2C1
40	15	–	CC1(C)CC[C@]2(C(=O)O)CC=C3[C@]4(C)CC[C@H]5C(C)(C)[C@H](O)[C@@H](OC(=O)c6ccc(O)cc6)C[C@]5(C)[C@H]4CC[C@@]3(C)[C@H]2C1
> 200	14.4	–	CC1(C)CC[C@]2(C(=O)O)CC=C3[C@]4(C)CC[C@H]5C(C)(C)[C@@H](OC(=O)c6ccc(O)cc6)[C@H](O)C[C@]5(C)[C@H]4CC[C@@]3(C)[C@H]2C1
> 100	3.4	–	CC1(C)CC[C@]2(C(=O)O)CC=C3[C@]4(C)CC[C@H]5C(C)(C)C[C@H](O)[C@@H](O)[C@]5(C)[C@H]4CC[C@@]3(C)[C@H]2C1
200	10.6	–	CC1(C)CC[C@]2(C(=O)O)CC=C3[C@]4(C)CC[C@H]5C(C)(C)[C@@H](OC(=O)c6ccc(O)cc6)CC[C@]5(C)[C@H]4CC[C@@]3(C)[C@H]2C1
> 200	52	–	CC1(C)CC[C@]2(C(=O)O)CC=C3[C@]4(C)CC[C@H]5C(C)(C)[C@@H](O)[C@H](OC(=O)c6ccc(O)cc6)C[C@]5(C)[C@H]4CC[C@@]3(C)[C@H]2C1
